Measured values: patent US20240307362A1 (priority 2019, published 2024)
“And” between values parts separate entries of the source, which are not always exact repeats. Identical values can stand only once. Like-named read-outs stand apart in the source and are kept apart here.

How the values were obtained:
Ba/F3-EGFR-insSVD = test: Ba/F3 cell survival assay, EGFR-insSVD; assay type: cell-based
Protocol: (§1) 293T cells from ATCC were transfected with pBABEpuro expression constructs for WT EGFR or EGFR-insSVD and pCL-Eco packaging vector using Fugene-6 transfection reagent from Promega. Plates were incubated at 37° C. for 48 h. Retrovirus was harvested by filtering the media supernatant through a 0.45 μm filter.
(§2) Ba/F3 cells purchased from DSMZ were grown in RPMI+10% FBS+10 ng/mL IL-3 and infected with filtered retroviral supernatant at a 1:2 dilution. Polybrene was added to a concentration of 8 μg/mL, plates were spun for 90 min, and incubated overnight at 37° C. 2 μg/mL puromycin was added to the infected cells 24 h after infection and cells were continually grown in the presence of puromycin and 10 ng/mL IL-3. Following stably expressing Ba/F3 cell lines were generated: Ba/F3-EGFR-WT, Ba/F3-EGFR-insSVD, (Ba/F3-vector-control).
For cell survival assays, Ba/F3 cells were grown to a density of 1-2 million cells per mL, spun down and resuspended in media without IL-3, and replated at a concentration 200,000-500,000 cells per mL. The cells ectopically expressing WT EGFR or EGFR-insSVD were plated with 10 ng/mL Millipore Culture grade EGF. The cells ectopically expressing pBABEpuro empty vector were plated with 10 ng/mL IL-3.
2 days later, cells were plated in 50 μL in a 384 well plate at a concentration of 4000 cells per well for cells assayed in the absence of IL-3 and 2000 cells per well for cells assayed in the presence of IL-3. 100 nL of compound was added to each well using a 100 nL pin head, and plates were incubated at 37° C. for 48 h.
Cell viability was measured by adding 20 μL of Cell Titer-Glo Luminescent Cell Viability Reagent diluted 1:3 in PBS. Plates were sealed with Perkin Elmer Top-Seal, inverted several times to mix, and immediately centrifuged at 1000 rpm for 2 min. Plates were incubated in low light conditions for 8-10 min and luminescence was measured.

Ba/F3-EGFR-WT = test: Ba/F3 cell survival assay, WT EGFR; assay type: cell-based
Protocol: as §1, §2
The cells ectopically expressing WT EGFR or EGFR-insSVD were plated with 10 ng/mL Millipore Culture grade EGF. The cells ectopically expressing pBABEpuro empty vector were plated with 10 ng/mL IL-3.
100 nL of compound was added to each well using a 100 nL pin head, and plates were incubated at 37° C. for 48 h.
Cell viability was measured by adding 20 μL of Cell Titer-Glo Luminescent Cell Viability Reagent diluted 1:3 in PBS. Plates were sealed with Perkin Elmer Top-Seal, inverted several times to mix, and immediately centrifuged at 1000 rpm for 2 min.

human Bub1 = human Bub1 (Homo sapiens (Human), UniProt O43683); test: Bub1 high ATP kinase assay (TR-FRET); assay type: biochemical; conditions: read-out: Bub1 high ATP (2 mM) IC50; 2 mM ATP
human Bub1, sequence (O43683 704-1085): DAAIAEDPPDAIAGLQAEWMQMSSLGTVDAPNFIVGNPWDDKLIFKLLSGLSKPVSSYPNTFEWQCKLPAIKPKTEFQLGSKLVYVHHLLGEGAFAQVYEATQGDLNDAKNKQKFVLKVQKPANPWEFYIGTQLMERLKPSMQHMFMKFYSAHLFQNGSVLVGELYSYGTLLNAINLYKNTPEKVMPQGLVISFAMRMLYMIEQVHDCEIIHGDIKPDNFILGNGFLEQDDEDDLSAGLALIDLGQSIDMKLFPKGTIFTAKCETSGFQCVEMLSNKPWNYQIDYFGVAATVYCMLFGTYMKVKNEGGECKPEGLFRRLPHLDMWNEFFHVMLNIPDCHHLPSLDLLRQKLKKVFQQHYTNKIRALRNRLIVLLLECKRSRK
From the text: Bub1-inhibitory activity of compounds of the present invention at a high ATP concentration was quantified employing the Bub1 TR-FRET high ATP kinase assay as described in the following paragraphs.
N-terminally His6-tagged recombinant catalytic domain of human Bub1 (amino acids 704-1085), expressed in insect cells (Hi5) and purified by Ni-NTA affinity chromatography and subsequent size exclusion chromatography, was used as enzyme.

[1] = read-out: BA/F3 (insSVD) IC50, cell viability, Cell Titer-Glo, 48 h, with 10 ng/mL EGF, without IL-3
[2] = read-out: BA/F3 (wild type) IC50, cell viability, Cell Titer-Glo, 48 h, with 10 ng/mL EGF, without IL-3
[3] = Mus musculus, BaF3, 48 h, read-out: BA/F3 (insSVD) IC50, cell viability, Cell Titer-Glo, 48 h, with 10 ng/mL EGF, without IL-3
[4] = Mus musculus, BaF3, 48 h, read-out: BA/F3 (wild type) IC50, cell viability, Cell Titer-Glo, 48 h, with 10 ng/mL EGF, without IL-3

| Compound | IC50 (Ba/F3-EGFR-insSVD; [1]) | IC50 (Ba/F3-EGFR-WT; [2]) | IC50 (human Bub1) | IC50 (Ba/F3-EGFR-insSVD; [3]) | IC50 (Ba/F3-EGFR-WT; [4]) |
| --- | --- | --- | --- | --- | --- |
| COc1c(Nc2c(-c3ccncc3OCC3CCO3)[nH]c3c2C(=O)NCC3)ccc(F)c1Cl (single isomer, unassigned; (+)) [Example 15, (+)-3-(3-chloro-4-fluoro-2-methoxyanilino)-2-{3-[(oxetan-2-yl)methoxy]pyridin-4-yl}-1,5,6,7-tetrahydro-4H-pyrrolo[3,2-c]pyridin-4-one] | 168 nM | 2380 nM | > 20000 nM |  |  |
| COc1c(F)cccc1Nc1c(-c2ccncc2OCC2(C)CCO2)[nH]c2c1C(=O)NCC2 (single isomer, unassigned; (+)) [Example 21, (+)-3-(3-fluoro-2-methoxyanilino)-2-{3-[(2-methyloxetan-2-yl)methoxy]pyridin-4-yl}-1,5,6,7-tetrahydro-4H-pyrrolo[3,2-c]pyridin-4-one] | 40.4 nM | 571 nM | > 20000 nM |  |  |
| COc1c(Cl)cccc1Nc1c(-c2ccncc2OCCC2CCO2)[nH]c2c1C(=O)NCC2 (single isomer, unassigned; (+)) [Example 25, (+)-3-(3-chloro-2-methoxyanilino)-2-{3-[2-(oxetan-2-yl)ethoxy]pyridin-4-yl}-1,5,6,7-tetrahydro-4H-pyrrolo[3,2-c]pyridin-4-one] |  |  | 1080 nM | 4.21 nM | 121 nM |
| Cc1cccc(Nc2c(-c3ccncc3OCC3CCO3)[nH]c3c2C(=O)NCC3)c1Cl (single isomer, unassigned; (+)) [Example 38, (+)-3-(2-chloro-3-methylanilino)-2-{3-[(oxetan-2-yl)methoxy]pyridin-4-yl}-1,5,6,7-tetrahydro-4H-pyrrolo[3,2-c]pyridin-4-one] | 48.8 nM | 628 nM | > 20000 nM |  |  |
| COc1c(F)cccc1Nc1c(-c2ccncc2OCC2OCC2(C)C)[nH]c2c1C(=O)NCC2 (single isomer, unassigned; (+)) [Example 54, (+)-2-{3-[(3,3-dimethyloxetan-2-yl)methoxy]pyridin-4-yl}-3-(3-fluoro-2-methoxyanilino)-1,5,6,7-tetrahydro-4H-pyrrolo[3,2-c]pyridin-4-one] | 30.9 nM | 498 nM | > 20000 nM |  |  |
| Cc1cccc(Nc2c(-c3ccncc3OCC3OCC3(C)C)[nH]c3c2C(=O)NCC3)c1Cl (single isomer, unassigned; (+)) [Example 59, (+)-3-(2-chloro-3-methylanilino)-2-{3-[(3,3-dimethyloxetan-2-yl)methoxy]pyridin-4-yl}-1,5,6,7-tetrahydro-4H-pyrrolo[3,2-c]pyridin-4-one] | 59.9 nM | 655 nM | > 20000 nM |  |  |
| O=C1NCCc2[nH]c(-c3ccncc3OCC3CCO3)c(Nc3cccc(Cl)c3Cl)c21 (single isomer, unassigned; (-)) [Example 12, (−)-3-(2,3-dichloroanilino)-2-{3-[(oxetan-2-yl)methoxy]pyridin-4-yl}-1,5,6,7-tetrahydro-4H-pyrrolo[3,2-c]pyridin-4-one] | 192 nM | 991 nM | 11300 nM |  |  |
| COc1c(Nc2c(-c3ccncc3OCC3CCO3)[nH]c3c2C(=O)NCC3)ccc(F)c1Cl (single isomer, unassigned; (-)) [Example 14, (−)-3-(3-chloro-4-fluoro-2-methoxyanilino)-2-{3-[(oxetan-2-yl)methoxy]pyridin-4-yl}-1,5,6,7-tetrahydro-4H-pyrrolo[3,2-c]pyridin-4-one] | 438 nM |  | 16300 nM |  | 1660 nM |
| Cc1cccc(Nc2c(-c3ccncc3OCC3CCO3)[nH]c3c2C(=O)NCC3)c1Cl (single isomer, unassigned; (-)) [Example 39, (−)-3-(2-chloro-3-methylanilino)-2-{3-[(oxetan-2-yl)methoxy]pyridin-4-yl}-1,5,6,7-tetrahydro-4H-pyrrolo[3,2-c]pyridin-4-one] | 473 nM | 1650 nM | 8320 nM |  |  |
| COc1c(Cl)cccc1Nc1c(-c2ccncc2OCC2(C)CCO2)[nH]c2c1C(=O)NCC2 (single isomer, unassigned; (-)) [Example 47, (−)-3-(3-chloro-2-methoxyanilino)-2-{3-[(2-methyloxetan-2-yl)methoxy]pyridin-4-yl}-1,5,6,7-tetrahydro-4H-pyrrolo[3,2-c]pyridin-4-one] | 96.4 nM | 975 nM | 8860 nM |  |  |
| COc1c(Cl)cccc1Nc1c(-c2ccncc2OCC2OCC2(C)C)[nH]c2c1C(=O)NCC2 (single isomer, unassigned; (-)) [Example 51, (−)-3-(3-chloro-2-methoxyanilino)-2-{3-[(3,3-dimethyloxetan-2-yl)methoxy]pyridin-4-yl}-1,5,6,7-tetrahydro-4H-pyrrolo[3,2-c]pyridin-4-one] | 153 nM | 1050 nM | 17100 nM and 17300 nM and > 20000 nM |  |  |
| Cc1cccc(Nc2c(-c3ccncc3OCC3OCC3(C)C)[nH]c3c2C(=O)NCC3)c1Cl (single isomer, unassigned; (-)) [Example 60, (−)-3-(2-chloro-3-methylanilino)-2-{3-[(3,3-dimethyloxetan-2-yl)methoxy]pyridin-4-yl}-1,5,6,7-tetrahydro-4H-pyrrolo[3,2-c]pyridin-4-one] | > 1000 nM | 2130 nM | 18800 nM and > 20000 nM |  |  |
| COc1c(F)cccc1Nc1c(-c2ccncc2OC[C@@H]2CCO2)[nH]c2c1C(=O)NCC2 [Example 5, 3-(3-fluoro-2-methoxyanilino)-2-(3-{[(2S)-oxetan-2-yl]methoxy}pyridin-4-yl)-1,5,6,7-tetrahydro-4H-pyrrolo[3,2-c]pyridin-4-one] |  |  | > 20000 nM | 22.4 nM | 578 nM |
| Cc1c(Cl)cccc1Nc1c(-c2ccncc2OC[C@@H]2CCO2)[nH]c2c1C(=O)NCC2 [Example 8, 3-(3-chloro-2-methylanilino)-2-(3-{[(2S)-oxetan-2-yl]methoxy}pyridin-4-yl)-1,5,6,7-tetrahydro-4H-pyrrolo[3,2-c]pyridin-4-one] |  |  | 7610 nM | 12.5 nM | 230 nM |
| Cc1c(Cl)cccc1Nc1c(-c2ccncc2OC[C@H]2CCO2)[nH]c2c1C(=O)NCC2 [Example 9, 3-(3-chloro-2-methylanilino)-2-(3-{[(2R)-oxetan-2-yl]methoxy}pyridin-4-yl)-1,5,6,7-tetrahydro-4H-pyrrolo[3,2-c]pyridin-4-one] |  |  | 1570 nM | 269 nM | 1200 nM |
| O=C1NCCc2[nH]c(-c3ccncc3OCC3COC3)c(Nc3cccc(Cl)c3OC(F)F)c21 [Example 17, 3-[3-chloro-2-(difluoromethoxy)anilino]-2-{3-[(oxetan-3-yl)methoxy]pyridin-4-yl}-1,5,6,7-tetrahydro-4H-pyrrolo[3,2-c]pyridin-4-one] |  |  | 7520 nM | 177 nM | 1740 nM |
| COc1c(F)cccc1Nc1c(-c2ccncc2OCC2COC2)[nH]c2c1C(=O)NCC2 [Example 18, 3-(3-fluoro-2-methoxyanilino)-2-{3-[(oxetan-3-yl)methoxy]pyridin-4-yl}-1,5,6,7-tetrahydro-4H-pyrrolo[3,2-c]pyridin-4-one] |  |  | 12100 nM | 80.1 nM | 819 nM |
| CCC1(COc2cnccc2-c2[nH]c3c(c2Nc2cccc(Cl)c2OC)C(=O)NCC3)COC1 [Example 22, 3-(3-chloro-2-methoxyanilino)-2-{3-[(3-ethyloxetan-3-yl)methoxy]pyridin-4-yl}-1,5,6,7-tetrahydro-4H-pyrrolo[3,2-c]pyridin-4-one] |  |  | 3830 nM | 57.2 nM | 852 nM |
